Measurements from paper PMC11249646, “Small-Molecule Disruptors of the Interaction between Calcium- and Integrin-Binding Protein 1 and Integrin αIIbβ3 as Novel Antiplatelet Agents” (ACS Pharmacology & Translational Science, 2024).
Read-outs that look alike come from different tables or passages of the source.

Biological target: T1, CIB1 and αIIb interaction (CIB1-GST : F-αIIb peptide) (Homo sapiens, UniProt Q99828)
T1 construct: made in house; host or cells: BL-21 plus RIL cells (E. coli)
T1 sequence (Q99828 1-191): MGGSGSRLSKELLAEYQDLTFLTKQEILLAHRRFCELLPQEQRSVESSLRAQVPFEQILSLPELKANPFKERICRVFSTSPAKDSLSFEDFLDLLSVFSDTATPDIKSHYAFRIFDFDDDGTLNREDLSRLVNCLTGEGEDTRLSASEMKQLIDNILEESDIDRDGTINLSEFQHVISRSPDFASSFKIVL
Test: FP assay, 1536-well qHTS format (primary and confirmatory screen)
Assay type: binding
Conditions: for Efficacy (%): negative = inhibition; for Curve Class: negative sign = inhibitory curve; for IC50: read-out: IC50

[1] = qHTS primary screen hits, Table S2
[2] = qHTS primary screen of LOPAC/NPACT libraries
[3] = qHTS FP screen hits, Table S2, one class per curve where COUNT > 1
[4] = qHTS primary screen hits, Table S2, several classes where COUNT > 1

Structure (SMILES) | Efficacy (%) [1] | IC50 [1] | Efficacy (%) [2] | Curve Class [2] | IC50 [2] | other results
CN1Cc2c(N)cccc2C(c2ccccc2)C1.O=C(O)/C=C\C(=O)O (stereo not shown) [NCGC00015727-06] | -62% | 50.1 µM |  |  |  | Curve Class [1]: -2.2
O=C1C(SCCO)=C(SCCO)C(=O)c2ccccc21 [NCGC00015729-08] | -77% | 44.7 µM |  |  |  | Curve Class [1]: -2.2
O=C(Nc1ccc([N+](=O)[O-])cc1Cl)c1cc(Cl)ccc1O [NCGC00015735-08] |  |  | -12% | -2.4 | 63.1 µM | 
COC(=O)C1=C(C)NC(C)=C(C(=O)OC)C1c1ccccc1[N+](=O)[O-] [NCGC00015748-13] |  |  | -24% | -1.2 | 11.2 µM | 
CCCCCCC/C=C\CCCCCCCCC(=O)O [NCGC00015764-04] |  |  | -27% | -2.4 | 31.6 µM | 
O=c1onc2cnc3ccccc3n12 [NCGC00015770-05] |  |  | -21% | -2.4 | 56.2 µM | 
CCCC(C(=O)OCCN(CC)CC)(c1ccccc1)c1ccccc1.Cl [NCGC00015799-04] |  |  | -14% | -2.4 | 56.2 µM | 
O=C(O)C(F)(F)F.O=c1[nH]c2ccccc2n1C1CCN(CCCC(c2ccc(F)cc2)c2ccc(F)cc2)CC1 [NCGC00015802-18] | -216% | 89.1 µM |  |  |  | Curve Class [1]: -3
C=Cc1c(C)c2cc3[nH]c(cc4nc(cc5nc(cc1[nH]2)C(C)=C5CCC(=O)O)C(CCC(=O)O)=C4C)c(C)c3C=C [NCGC00015844-10] |  |  |  |  |  | Efficacy (%) (qHTS FP screen hits, Table S2): -75%; Curve Class [3]: -2.2; IC50 (qHTS FP screen hits, Table S2): 42.2 µM
O.O.O=c1c(O)c(-c2ccc(O)c(O)c2)oc2cc(O)cc(O)c12 [NCGC00015870-27] | -30% |  |  |  |  | 
Cc1nc2sccn2c(=O)c1CCN1CCC(=C(c2ccc(F)cc2)c2ccc(F)cc2)CC1 [NCGC00015877-09] |  |  | -22% | -2.2 | 56.2 µM | 
COC(=O)C1C(O)CCC2CN3CCc4c([nH]c5ccccc45)C3CC21 (stereo not shown) [NCGC00015878-08] |  |  | -68% | -2.2 |  | 
O=C(c1cc(O)c(O)c([N+](=O)[O-])c1)c1ccccc1F [NCGC00015881-04] |  |  | -35% | -2.2 | 39.8 µM | 
COc1ccccc1N1CCNCC1.Cl [NCGC00015906-04] | -80% | 79.4 µM |  |  |  | Curve Class [1]: -3
O=C(O)c1ccccc1Nc1cccc(OCc2ccc3ccccc3n2)c1 [NCGC00015965-05] | -42% | 50.1 µM |  |  |  | Curve Class [1]: -2.2
O=C1CCC(N2C(=O)c3ccccc3C2=O)C(=O)N1 (stereo not shown) [NCGC00015989-17] | -28% | 50.1 µM |  |  |  | Curve Class [4]: -2.4
CCN(CC)C(=S)SSC(=S)N(CC)CC [NCGC00016000-10] | -67% | 35.8 µM |  |  |  | 
C/C(=C\c1ccc(C(=O)O)cc1)c1ccc2c(c1)C(C)(C)CCC2(C)C [NCGC00016015-10] |  |  | -10% | -1.4 | 39.8 µM | 
Cn1cnc2c1c(=O)[nH]c(=O)n2C [NCGC00016023-18] | -74% | 89.1 µM |  |  |  | Curve Class [4]: -3
N#C/C(=C\c1ccc(O)c(O)c1)C(=O)NCCCNC(=O)/C(C#N)=C/c1ccc(O)c(O)c1 [NCGC00016027-04] |  |  | -24% | -1.2 |  | 
N#C/C(=C\c1ccc(O)c(O)c1)C(=O)NCCc1ccccc1 [NCGC00016029-05] |  |  | -15% | -1.2 | 7.9 µM | 
COC[C@H]1OC(=O)c2coc3c2[C@@]1(C)C1=C(C3=O)C2CCC(=O)[C@@]2(C)C[C@H]1OC(C)=O (stereo partly shown) [NCGC00016094-12] |  |  |  |  |  | Efficacy (%) (qHTS FP screen hits, Table S2): -33%; Curve Class [3]: -2.2; IC50 (qHTS FP screen hits, Table S2): 29.3 µM
CCCOc1ccccc1-c1nc(=O)c2nn[nH]c2[nH]1 [NCGC00016105-05] |  |  | -22% | -1.4 | 14.1 µM | 
CC(C)N(CCC(=O)c1ccc2ccccc2c1)Cc1ccccc1.Cl [NCGC00016107-09] |  |  | -65% | -1.2 | 28.2 µM | 
COc1ccc(NS(=O)(=O)c2ccc(N)cc2)nn1 [NCGC00016324-09] | -139% | 39.8 µM |  |  |  | Curve Class [1]: -3
Oc1c(I)cc(Cl)c2cccnc12 [NCGC00016391-13] | -32% | 56.2 µM |  |  |  | Curve Class [4]: -2.4

Structure (SMILES) | Efficacy (%) [1] | IC50 [1] | Efficacy (%) [2] | Curve Class [2] | IC50 [2] | other results
CC(=O)O.Cc1cc2c(C(C)C)c(O)c(O)c(C=O)c2c(O)c1-c1c(C)cc2c(C(C)C)c(O)c(O)c(C=O)c2c1O [NCGC00016423-14] |  |  |  |  |  | Efficacy (%) (qHTS FP screen hits, Table S2): -64%; IC50 (qHTS FP screen hits, Table S2): 29.4 µM
O=C(CCCN1CCC(n2c(=O)[nH]c3ccccc32)CC1)c1ccc(F)cc1 [NCGC00016602-04] | -58% | 50.1 µM |  |  |  | Curve Class [1]: -2.4
COc1ccc2c(c1)C(=O)N(CCc1ccc(S(=O)(=O)NC(=O)NC3CCCCC3)cc1)C(=O)C2(C)C [NCGC00016819-06] |  |  | -31% | -2.4 | 44.7 µM | 
Nc1cc(-c2ccncc2)c[nH]c1=O [NCGC00016896-06] | -48% | 50.1 µM |  |  |  | Curve Class [4]: -2.2
CCC(C)(C)C(=O)O[C@H]1C[C@@H](C)C=C2C=C[C@H](C)[C@H](CC[C@@H]3C[C@@H](O)CC(=O)O3)[C@H]21 [NCGC00017324-07] | -17% |  |  |  |  | Curve Class [4]: -2.4
CCCN1C[C@H](CSC)C[C@@H]2c3cccc4[nH]cc(c34)C[C@H]21 [NCGC00017366-05] |  |  | -29% | -2.2 | 50.1 µM | 
Fc1ccc(C(c2ccc(F)cc2)N2CCN(C/C=C/c3ccccc3)CC2)cc1 [NCGC00018102-06] | -167% | 19.2 µM |  |  |  | Curve Class [1]: -2.1
Cl.Cl.Nc1ccc(/N=N/c2ccccc2)c(N)n1 [NCGC00018130-09] | -22% | 79.4 µM |  |  |  | Curve Class [1]: -2.4
COc1ccc(/C=C/C(=O)Nc2ccccc2C(=O)O)cc1OC [NCGC00018185-09] | -29% | 39.8 µM |  |  |  | Curve Class [4]: -2.2
CC1=NN(c2ccccc2)C(=O)C1 [NCGC00018218-10] | -46% | 50.1 µM |  |  |  | Curve Class [4]: -2.2
Cc1nnc(SCC2=C(C(=O)O)N3C(=O)[C@@H](NC(=O)Cn4cnnn4)[C@H]3SC2)s1 [NCGC00022653-06] |  |  | -21% |  |  | 
CO[C@@]1(NC(=O)CSCC#N)C(=O)N2C(C(=O)[O-])=C(CSc3nnnn3C)CS[C@@H]21.[Na+] [NCGC00023016-07] | -29% | 50.1 µM |  |  |  | Curve Class [4]: -2.4
Cc1ccc(Cl)c(Nc2ccccc2C(=O)O)c1Cl [NCGC00023217-06] | -57% | 44.7 µM |  |  |  | Curve Class [1]: -2.2
CC[C@@H](CO)NC(=O)[C@@H]1C=C2c3cccc4c3c(cn4C)C[C@H]2N(C)C1 [NCGC00024027-09] |  |  |  |  |  | Efficacy (%) (qHTS FP screen hits, Table S2): -89%; Curve Class [3]: -2.2; IC50 (qHTS FP screen hits, Table S2): 44.7 µM
COc1cccc2c1C(=O)c1c(O)c3c(c(O)c1C2=O)C[C@@](O)(C(C)=O)C[C@@H]3O[C@H]1C[C@H](N)[C@H](O)[C@H](C)O1 [NCGC00024246-15] | -61% | 15.2 µM |  |  |  | 
CNC[C@H](O)c1cccc(O)c1 [NCGC00024257-06] | -15% | 5.6 µM |  |  |  | Curve Class [4]: -1.2
CS(=O)(=O)O.CSc1ccc2c(c1)C(N1CCN(C)CC1)Cc1ccccc1S2 (stereo not shown) [NCGC00024665-06] |  |  | -28% | -2.4 | 56.2 µM | 
C[C@](N)(Cc1ccc(O)c(O)c1)C(=O)O [NCGC00024667-14] | -24% | 89.1 µM |  |  |  | Curve Class [4]: -2.4
CC(=O)N[C@@H](Cc1c[nH]c2ccccc12)C(=O)OCc1cc(C(F)(F)F)cc(C(F)(F)F)c1 [NCGC00024832-04] |  |  | -16% | -1.2 | 39.8 µM | 
O=C(Nc1cccc(C(=O)Nc2ccc(S(=O)(=O)O)c3cc(S(=O)(=O)O)cc(S(=O)(=O)O)c23)c1)Nc1cccc(C(=O)Nc2ccc(S(=O)(=O)O)c3cc(S(=O)(=O)O)cc(S(=O)(=O)O)c23)c1 [NCGC00025069-04] |  |  | -37% | -1.4 | 0.316 µM | 
CC(=O)c1c(O)c(C)c(O)c(Cc2c(O)c3c(c(C(=O)/C=C/c4ccccc4)c2O)OC(C)(C)C=C3)c1O [NCGC00025228-08] | -45% | 28.2 µM |  |  |  | Curve Class [1]: -1.2
Oc1ccccc1C1Nc2cccc3cccc(c23)N1 [NCGC00026112-04] | -42% | 56.2 µM |  |  |  | Curve Class [1]: -2.2
Cc1ccc(C)n1-c1cccc(C(=O)O)c1.O=C(O)C(F)(F)F [NCGC00060597-04] |  |  |  |  |  | Efficacy (%) (qHTS FP screen hits, Table S2): -32%; IC50 (qHTS FP screen hits, Table S2): 32.3 µM
Cc1cc(N2CCN(c3ccccc3)CC2)nc(-n2nc(C)cc2C)n1.O=C(O)C(F)(F)F [NCGC00067399-02] | -30% | 56.2 µM |  |  |  | Curve Class [1]: -2.4
O=S1(=O)N=C(Oc2ccccc2)c2ccccc21 [NCGC00079022-02] | -23% | 79.4 µM |  |  |  | Curve Class [4]: -2.4
NC(=O)N/N=C/c1ccc([N+](=O)[O-])o1 [NCGC00090686-07] | -26% | 112 µM |  |  |  | Curve Class [1]: -2.4
